Entries after “also recorded” stand apart in the source; their conditions may differ.
Key:
[1] = MRI-H-121 mouse xenograft study, tolerability; assay type: in vivo, mice
Procedure: Tumor bearing animals were randomly allocated into 2 groups (N=10/group): PM14 administered at 1.25 mg/kg and placebo. All treatments were intravenously administered once a week for 3 consecutive weeks (days 0, 7 and 14).
Tumor volume and animal body weights were measured 2-3 times per week starting from the first day of treatment.
Treatment tolerability was assessed by monitoring body weight evolution, clinical signs of systemic toxicity, as well as evidences of local damage in the injection site.
Treatments producing >20% lethality and/or 20% net body weight loss were considered toxic. Animals were euthanized when their tumors reached ca. 2,000 mm^3 and/or severe necrosis was seen.

[2] = Phase I dose-escalating study, pharmacokinetics; assay type: in vivo
Excerpt: (§1) Open-label, dose-escalating, phase I trial of PM14 administered as a 3-hour infusion i.v. every 3 weeks (q3wk) in human patients (pts) with advanced solid tumors, adequate organ function and ECOG PS score of 0-1. Two schedules were explored: Schedule A (Day 1 [D1], Day 8 [D8]) and Schedule B (D1).
Secondary Endpoints • Safety: patients will be evaluable for safety if they have received at least one partial infusion of PM14. AEs will be graded according to the NCI-CTCAE v.4. Additionally, treatment-related discontinuations and treatment compliance (dose reduction, skipped doses and/or treatment delays due to AEs), will be described. • Pharmacokinetics: PK analyses will be evaluated in plasma and urine by standard non-compartmental analysis (compartmental modeling may be performed if appropriate). Plasma samples for PM14 PK analysis will be obtained in Cycle 1 from all patients, and also in Cycle 2 from patients treated during Step D of the CRM. In addition, the urine produced during Day 1 of Cycle 1 and Cycle 2 will be collected from patients treated during Step D of the CRM. • Pharmacogenetics: the presence or absence of PGt polymorphisms in genes relevant for PM14 disposition (distribution, metabolism and excretion) from a single blood sample collected at any time during the trial (but preferably at the same time as the pre-treatment PK sample on Day 1 of Cycle 1) will be assessed to explain individual variability in main PK parameters. • Pharmacogenomics: this exploratory analysis will be performed in those patients who sign the Informed Consent Form (ICF) for the PGx study. mRNA or protein expression levels of factors involved in DNA repair mechanisms, or related to the mechanism of action of PM14, will be evaluated from available tumor tissue samples obtained at diagnosis or relapse and in cell-free ctDNA. Their mutational status might also be analyzed, if relevant. Their correlation with the clinical response and outcome after treatment will be assessed. • Efficacy: patients will be evaluable for efficacy if they receive at least one complete infusion of PM14 and have at least one clinical or radiological tumor assessment as per RECIST v.1.1 or serum markers, or if they are considered to have failed treatment. Treatment failure will be defined as clinical deterioration, death due to PD or treatment discontinuation due to any treatment-related toxicity before any appropriate tumor assessments have been performed.

MEXF 276L (melanoma) = assay: Propidium iodide monolayer cell proliferation assay, MEXF 276L; assay type: cell-based, human
Procedure: (§2) Cell proliferation assay: A modified propidium iodide (PI) based monolayer assay was used to assess the anti-cancer activity of the compounds (Dengler WA, Schulte J, Berger DP, Mertelsmann R, Fiebig HH, Anti-Cancer Drugs 1995, 6: 522-532). Briefly, cells were harvested from exponential phase cultures, counted and plated in 96 well flat-bottom microtiter plates at a cell density of 4,000 to 30,000 cells/well dependent on the cell line's growth rate. After a 24 h recovery period, to allow the cells to resume exponential growth, 10 μl of culture medium (4 control wells/cell line/plate) or of culture medium with test compounds were added. PM14 was applied at ten concentrations in half-log increments in duplicates up to 3.16 pM and treatment continued for four days. […] After an incubation period of 1-2 hours at room temperature, fluorescence (FU) was measured using the Enspire Multimode Plate Reader (excitation A=530 nm, emission A=620 nm) to quantify the amount of attached viable cells.
(§3) IC50 and IC70 values were calculated by 4 parameter non-linear curve fit using Oncotest Warehouse Software. […]
(§4) IC50 values were determined as described in Example 2, but using the following human cancer cell lines: • MEXF 276L (melanoma) • MEXF 462NL (melanoma) • MEXF 1341L (melanoma)

advanced solid tumors = assay: Phase I dose-escalating study, antitumor activity; assay type: in vivo, human; conditions: patients, various cancers
Excerpt: Antitumor response will be assessed using the RECIST v.1.1 and/or serum tumor markers as appropriate (see above).
as §1
Secondary Endpoints • Safety: patients will be evaluable for safety if they have received at least one partial infusion of PM14. AEs will be graded according to the NCI-CTCAE v.4. Additionally, treatment-related discontinuations and treatment compliance (dose reduction, skipped doses and/or treatment delays due to AEs), will be described. • Pharmacokinetics: PK analyses will be evaluated in plasma and urine by standard non-compartmental analysis (compartmental modeling may be performed if appropriate). […] Their mutational status might also be analyzed, if relevant. Their correlation with the clinical response and outcome after treatment will be assessed. • Efficacy: patients will be evaluable for efficacy if they receive at least one complete infusion of PM14 and have at least one clinical or radiological tumor assessment as per RECIST v.1.1 or serum markers, or if they are considered to have failed treatment. […]

MEXF 1341L (melanoma) = assay: Propidium iodide monolayer cell proliferation assay, MEXF 1341L; assay type: cell-based, human; conditions: MEXL 1341L
Procedure: as §2, §3, §4

With `COc1c(C)cc2c(c1O)[C@@H]1[C@@H]3[C@@H]4SC[C@]5(N[C@H](CO)Cc6c5[nH]c5ccccc65)C(=O)OC[C@@H](c5c6c(c(C)c(OC(C)=O)c54)OCO6)N3[C@@H](O)[C@H](C2)N1C` [PM14, ECUBECTEDIN] the mortality ([1]; 1.25 mg/kg i.v. days 0, 7 and 14) was “No mortality”, the “mean body weight reduction” value ([1]; Day 16, 1.25 mg/kg i.v. days 0, 7 and 14, reversible) was “ca. −15.0%” and the tolerability ([1]; MRI-H-121 tumor bearing animals, 1.25 mg/kg) was “well tolerated”. For the same molecule, the Vd ([2]; human, in vivo) was 128 L, the clearance ([2]; human, in vivo) was 98.3 mL/min and the half-life ([2]; human, in vivo, half-life) was 16 h. The half-life ([2]; human, in vivo, terminal half-life, median (range)) was 15.9 h, the “administered dose recovered in urine” value ([2]; patients) was “Less than 1.6%” and the “distribution into peripheral tissues” value ([2]; patients) was “moderate”. The hepatic extraction ratio ([2]; patients) was “low”, the “pharmacokinetics, dose linearity” value ([2]; tested doses 0.25-5.6 mg/rn^2) was “Linear pharmacokinetics” and the “IC70, μM (geometric mean)” value (MEXF 276L (melanoma)) was 0.0003 µM. The IC50 (MEXF 276L (melanoma); Homo sapiens, MEXF276L, read-out: IC50, μM (geometric mean)) was 0.0002 µM, the antitumor response (advanced solid tumors) was “prolonged tumor stabilizations; also recorded: stable disease (SD)” and the IC50 (MEXF 1341L (melanoma); Homo sapiens, MEXF 1341L, read-out: IC50, μM (geometric mean)) was 0.0004 µM. For the same molecule, the “IC70, μM (geometric mean)” value (MEXF 1341L (melanoma)) was 0.0006 µM.

Reference: patent publication US20240277705A1, “DOSAGE REGIMENS FOR ECUBECTEDIN” (PHARMA MAR S.A., priority 2021, published 2024)
